# Measurements taken from US20250228239A1, “MOLECULES HAVING PESTICIDAL UTILITY, AND INTERMEDIATES, COMPOSITIONS, AND PROCESSES, RELATED THERETO” (priority 2024, published 2025).
# Tests used:
# Assay type in all cases: in vivo
# [1] = test system: Cabbage Looper (Trichoplusia ni, TRIPNI); assay: Bioassays on Cabbage Looper (CL), 128-well diet tray assay; conditions: Trichoplusia ni; Table ABC: Biological Results; species CL; read-out: CL
# Method in brief: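 Diet tray, 2nd instar, 1–5 larvae/well; 50 μg/cm^2 compound surface-applied (acetone:water 90:10), dried; 8 wells/treatment; 25° C, 14:10 L:D, 5–7 d; % mortality, mean of 8 wells.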
# [2] = test system: Beet Armyworm (Spodoptera exigua, LAPHEG); assay: Bioassays on Beet Armyworm (BAW), 128-well diet tray assay; conditions: Spodoptera exigua; Table ABC: Biological Results; species BAW; read-out: BAW
# Method in brief: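 Larvae at second instar are exposed on dried, compound-treated diet (50 μg/cm^2, delivered in 90:10 acetone-water) in eight replicate wells. After five to seven days at 25° C., 14:10 light-dark, percent mortality in each well is scored and the eight wells averaged.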
# [3] = test system: Yellow Fever Mosquito (Aedes aegypti, AEDSAE); conditions: Table ABC: Biological Results; species YFM
# Method in brief: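 Compounds from 4000 ppm DMSO stocks were diluted in 90:10 water/acetone and dispensed into wells, then infested with about 1-day-old larvae in liver-powder water. Covered plates were held at room temperature for 3 days and each well was scored for mortality against a rating scale; six replicate plates per compound.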
SMILES,pest or weed control at 50 µg/cm2 [1] [%],pest or weed control at 50 µg/cm2 [2] [%],YFM [3]
"O=C(Nc1ccc(F)c(NC(=O)C(Cl)Cl)c1F)c1cc(NC(=O)[C@H]2[C@H](c3ccc(Cl)c(Cl)c3)C2(Cl)Cl)ccc1Cl [F1252, 2-Chloro-5-((1R,3R)-2,2-dichloro-3-(3,4-dichlorophenyl)cyclopropane-1-carboxamido)-N-(3-(2,2-dichloroacetamido)-2,4-difluorophenyl)benzamide]",50 to 100,50 to 100,A (80–100)
"O=C(Nc1c(F)ccc(NC(=O)c2cc(NC(=O)[C@H]3[C@H](c4ccc(Cl)c(Cl)c4)C3(Cl)Cl)ccc2Cl)c1F)c1ccccc1 [F1253, N-(3-Benzamido-2,4-difluorophenyl)-2-chloro-5-((1R,3R)-2,2-dichloro-3-(3,4-dichlorophenyl)cyclopropane-1-carboxamido)benzamide]",50 to 100,50 to 100,A (80–100)
"COCC(=O)Nc1c(F)ccc(NC(=O)c2cc(NC(=O)[C@H]3[C@H](c4ccc(Cl)c(Cl)c4)C3(Cl)Cl)ccc2Cl)c1F [F1254, 2-Chloro-5-((1R,3R)-2,2-dichloro-3-(3,4-dichlorophenyl)cyclopropane-1-carboxamido)-N-(2,4-difluoro-3-(2-methoxyacetamido)phenyl)benzamide]",50 to 100,50 to 100,A (80–100)
"N#CC1(C(=O)Nc2c(F)ccc(NC(=O)c3cc(NC(=O)[C@H]4[C@H](c5ccc(F)c(C(F)(F)F)c5)C4(Cl)Cl)ccc3Cl)c2F)CC1 [F1263, 2-Chloro-N-(3-(1-cyanocyclopropane-1-carboxamido)-2,4-difluorophenyl)-5-((1R,3R)-2,2-dichloro-3-(4-fluoro-3-(trifluoromethyl)phenyl)cyclopropane-1-carboxamido)benzamide]",50 to 100,50 to 100,A (80–100)
"O=C(Nc1ccc(F)c(NC(=O)C2CC2)c1F)c1cc(NC(=O)[C@H]2[C@H](c3ccc(F)c(C(F)(F)F)c3)C2(Cl)Cl)ccc1Cl [F1264, 2-Chloro-N-(3-(cyclopropanecarboxamido)-2,4-difluorophenyl)-5-((1R,3R)-2,2-dichloro-3-(4-fluoro-3-(trifluoromethyl)phenyl)cyclopropane-1-carboxamido)benzamide]",50 to 100,50 to 100,A (80–100)
"O=C(Nc1ccc(F)c(NC(=O)C(F)F)c1F)c1cc(NC(=O)[C@H]2[C@H](c3ccc(F)c(Cl)c3)C2(Cl)Cl)ccc1Cl [F1270, 2-Chloro-5-((1R,3R)-2,2-dichloro-3-(3-chloro-4-fluorophenyl)cyclopropane-1-carboxamido)-N-(3-(2,2-difluoroacetamido)-2,4-difluorophenyl)benzamide]",50 to 100,50 to 100,A (80–100)
"CN(C(=O)C(F)F)c1c(F)ccc(NC(=O)c2cc(NC(=O)[C@H]3[C@H](c4ccc(Cl)c(Cl)c4)C3(Cl)Cl)ccc2Cl)c1F [F1271, 2-Chloro-5-((1R,3R)-2,2-dichloro-3-(3,4-dichlorophenyl)cyclopropane-1-carboxamido)-N-(3-(2,2-difluoro-N-methylacetamido)-2,4-difluorophenyl)benzamide]",50 to 100,50 to 100,A (80–100)
"CC1(C(=O)Nc2c(F)ccc(NC(=O)c3cc(NC(=O)[C@H]4[C@H](c5ccc(F)c(C(F)(F)F)c5)C4(Cl)Cl)ccc3Cl)c2F)CC1(Cl)Cl (stereo partly drawn) [F1273, 2-Chloro-N-(3-(2,2-dichloro-1-methylcyclopropane-1-carboxamido)-2,4-difluorophenyl)-5-((1R,3R)-2,2-dichloro-3-(4-fluoro-3-(trifluoromethyl)phenyl)cyclopropane-1-carboxamido)benzamide]",50 to 100,50 to 100,A (80–100)
"O=C(Nc1ccc(F)c(NC(=O)C2CC2(F)F)c1F)c1cc(NC(=O)[C@H]2[C@H](c3ccc(F)c(C(F)(F)F)c3)C2(Cl)Cl)ccc1Cl (stereo partly drawn) [F1275, 2-Chloro-5-((1R,3R)-2,2-dichloro-3-(4-fluoro-3-(trifluoromethyl)phenyl)cyclopropane-1-carboxamido)-N-(3-(2,2-difluorocyclopropane-1-carboxamido)-2,4-difluorophenyl)benzamide]",50 to 100,50 to 100,A (80–100)
"O=C(Nc1ccc(F)c(NC(=O)C(F)(F)Br)c1F)c1cc(NC(=O)[C@H]2[C@H](c3ccc(F)c(C(F)(F)F)c3)C2(Cl)Cl)ccc1Cl [F1276, N-(3-(2-Bromo-2,2-difluoroacetamido)-2,4-difluorophenyl)-2-chloro-5-((1R,3R)-2,2-dichloro-3-(4-fluoro-3-(trifluoromethyl)phenyl)cyclopropane-1-carboxamido)benzamide]",50 to 100,50 to 100,A (80–100)
"CS(=O)(=O)N(c1c(F)ccc(NC(=O)c2cc(NC(=O)[C@H]3[C@H](c4ccc(F)c(C(F)(F)F)c4)C3(Cl)Cl)ccc2Cl)c1F)S(C)(=O)=O [F1277, 2-chloro-5-((1R,3R)-2,2-dichloro-3-(4-fluoro-3-(trifluoromethyl)phenyl)cyclopropane-1-carboxamido)-N-(2,4-difluoro-3-(N-(methylsulfonyl)methylsulfonamido)phenyl)benzamide]",50 to 100,50 to 100,A (80–100)
"O=C(Nc1ccc(F)c(NS(=O)(=O)c2ccccc2)c1F)c1cc(NC(=O)[C@H]2[C@H](c3ccc(F)c(C(F)(F)F)c3)C2(Cl)Cl)ccc1Cl [F1295, 2-chloro-5-((1R,3R)-2,2-dichloro-3-(4-fluoro-3-(trifluoromethyl)phenyl)cyclopropane-1-carboxamido)-N-(2,4-difluoro-3-(phenylsulfonamido)phenyl)benzamide]",50 to 100,50 to 100,A (80–100)
"O=C(Nc1ccc(F)c(NC(=O)C2CC=CCC2)c1F)c1cc(NC(=O)[C@H]2[C@H](c3ccc(F)c(C(F)(F)F)c3)C2(Cl)Cl)ccc1Cl (stereo partly drawn) [F1297, 2-Chloro-N-(3-(cyclohex-3-ene-1-carboxamido)-2,4-difluorophenyl)-5-((1R,3R)-2,2-dichloro-3-(4-fluoro-3-(trifluoromethyl)phenyl)cyclopropane-1-carboxamido)benzamide]",50 to 100,50 to 100,A (80–100)
"O=C(Nc1c(F)ccc(NC(=O)c2cc(NC(=O)[C@H]3[C@H](c4ccc(F)c(C(F)(F)F)c4)C3(Cl)Cl)ccc2Cl)c1F)C(=O)c1ccccc1 [F1298, 2-Chloro-5-((1R,3R)-2,2-dichloro-3-(4-fluoro-3-(trifluoromethyl)phenyl)cyclopropane-1-carboxamido)-N-(2,4-difluoro-3-(2-oxo-2-phenylacetamido)phenyl)benzamide]",50 to 100,50 to 100,A (80–100)
